Test results taken from ChEMBL document CHEMBL5465560, “Selectivity Literature for EUbOPEN Chemogenomic Library” (2024).

Key:
[1] = target: Tyrosine-protein kinase receptor Tie-1 (Homo sapiens) (UniProt P35590); experiment: Selectivity interaction (KinomeScan (DiscoverX)) EUB0001868a TIE1; conditions: at 1 µM
[2] = target: Serine/threonine-protein kinase/endoribonuclease IRE1 (Homo sapiens) (UniProt O75460); experiment: Selectivity interaction (KinomeScan (DiscoverX)) EUB0001049a ERN1; conditions: at 1 µM
[3] = target: SRSF protein kinase 1 (Homo sapiens, UniProt Q96SB4); experiment: Selectivity interaction (ActivX KiNativ screen (kinase selectivity in THP-1 cell lysates)) EUB0000639a SRPK1; assay type: subcellular; conditions: lysate, at 1 µM
[4] = target: Mitogen-activated protein kinase 7 (Homo sapiens) (UniProt Q13164); experiment: Selectivity interaction (Rxn Biology Kinase assay) EUB0001632a MAPK7; conditions: at 10 µM
[5] = target: Serine/threonine-protein kinase MRCK beta (Homo sapiens) (UniProt Q9Y5S2); experiment: Selectivity interaction (KinomeScan (DiscoverX)) EUB0000229b CDC42BPB; conditions: at 10 µM
[6] = target: T1, Serine/threonine-protein kinase tousled-like 1 (Homo sapiens) (UniProt Q9UKI8); experiment: Selectivity interaction (KinomeScan (DiscoverX)) EUB0000229b TLK1; conditions: at 10 µM
T1 sequence (whole entry): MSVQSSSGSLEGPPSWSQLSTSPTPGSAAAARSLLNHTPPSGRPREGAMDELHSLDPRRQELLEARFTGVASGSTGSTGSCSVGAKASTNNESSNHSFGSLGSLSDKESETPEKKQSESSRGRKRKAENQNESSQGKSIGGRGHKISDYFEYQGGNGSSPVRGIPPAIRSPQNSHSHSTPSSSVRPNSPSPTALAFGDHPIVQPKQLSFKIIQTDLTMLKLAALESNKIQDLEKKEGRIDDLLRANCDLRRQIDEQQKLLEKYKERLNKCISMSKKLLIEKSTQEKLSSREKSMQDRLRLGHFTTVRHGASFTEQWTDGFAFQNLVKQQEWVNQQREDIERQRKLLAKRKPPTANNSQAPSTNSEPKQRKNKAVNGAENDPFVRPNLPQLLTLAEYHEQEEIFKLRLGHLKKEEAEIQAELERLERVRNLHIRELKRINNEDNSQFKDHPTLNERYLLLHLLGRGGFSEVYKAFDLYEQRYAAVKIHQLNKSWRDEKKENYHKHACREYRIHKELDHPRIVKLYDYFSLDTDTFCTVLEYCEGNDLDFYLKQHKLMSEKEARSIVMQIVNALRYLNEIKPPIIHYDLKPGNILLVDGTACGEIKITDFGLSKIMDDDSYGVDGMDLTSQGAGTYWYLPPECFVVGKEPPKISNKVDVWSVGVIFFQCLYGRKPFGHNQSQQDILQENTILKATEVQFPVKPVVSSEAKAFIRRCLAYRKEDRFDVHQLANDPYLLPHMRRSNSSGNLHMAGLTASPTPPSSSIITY

[7] = target: MAP kinase-interacting serine/threonine-protein kinase 2 (Homo sapiens, UniProt Q9HBH9); experiment: Selectivity interaction (ProQinase) EUB0000171b MKNK2
[8] = target: Protein kinase C eta type (Homo sapiens) (UniProt P24723); experiment: Selectivity interaction (KinomeScan (DiscoverX)) EUB0000092b PRKCH; conditions: at 10 µM
[9] = target: Histone acetyltransferase p300 (Homo sapiens) (UniProt Q09472); experiment: Selectivity interaction (Human bromodomain panel (DSF assay)) EUB0000233b EP300
[10] = target: T2, Tyrosine-protein kinase Tec (Homo sapiens) (UniProt P42680); experiment: Selectivity interaction (KinomeScan (DiscoverX)) EUB0000045b TEC
T2 sequence (whole entry): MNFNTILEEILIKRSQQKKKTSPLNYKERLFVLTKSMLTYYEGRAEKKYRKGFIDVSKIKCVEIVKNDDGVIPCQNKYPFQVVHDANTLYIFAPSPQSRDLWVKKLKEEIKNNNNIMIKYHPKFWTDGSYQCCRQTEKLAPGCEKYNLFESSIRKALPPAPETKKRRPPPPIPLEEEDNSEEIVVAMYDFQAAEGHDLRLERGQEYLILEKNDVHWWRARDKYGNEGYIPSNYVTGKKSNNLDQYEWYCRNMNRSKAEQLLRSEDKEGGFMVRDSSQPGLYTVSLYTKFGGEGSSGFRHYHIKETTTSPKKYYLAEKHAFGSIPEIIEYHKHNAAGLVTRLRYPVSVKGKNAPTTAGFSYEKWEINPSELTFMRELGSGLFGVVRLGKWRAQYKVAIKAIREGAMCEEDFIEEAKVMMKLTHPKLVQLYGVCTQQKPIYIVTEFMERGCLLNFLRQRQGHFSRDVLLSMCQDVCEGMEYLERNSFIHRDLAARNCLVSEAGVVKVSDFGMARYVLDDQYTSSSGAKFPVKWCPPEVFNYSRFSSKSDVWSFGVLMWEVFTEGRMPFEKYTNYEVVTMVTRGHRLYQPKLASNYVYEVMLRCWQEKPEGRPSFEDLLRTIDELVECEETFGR

[11] = target: T3, Mitogen-activated protein kinase kinase kinase 7 (Homo sapiens) (UniProt O43318); experiment: Selectivity interaction (KinomeScan (DiscoverX)) EUB0000666a MAP3K7; conditions: at 10 µM
T3 sequence (whole entry): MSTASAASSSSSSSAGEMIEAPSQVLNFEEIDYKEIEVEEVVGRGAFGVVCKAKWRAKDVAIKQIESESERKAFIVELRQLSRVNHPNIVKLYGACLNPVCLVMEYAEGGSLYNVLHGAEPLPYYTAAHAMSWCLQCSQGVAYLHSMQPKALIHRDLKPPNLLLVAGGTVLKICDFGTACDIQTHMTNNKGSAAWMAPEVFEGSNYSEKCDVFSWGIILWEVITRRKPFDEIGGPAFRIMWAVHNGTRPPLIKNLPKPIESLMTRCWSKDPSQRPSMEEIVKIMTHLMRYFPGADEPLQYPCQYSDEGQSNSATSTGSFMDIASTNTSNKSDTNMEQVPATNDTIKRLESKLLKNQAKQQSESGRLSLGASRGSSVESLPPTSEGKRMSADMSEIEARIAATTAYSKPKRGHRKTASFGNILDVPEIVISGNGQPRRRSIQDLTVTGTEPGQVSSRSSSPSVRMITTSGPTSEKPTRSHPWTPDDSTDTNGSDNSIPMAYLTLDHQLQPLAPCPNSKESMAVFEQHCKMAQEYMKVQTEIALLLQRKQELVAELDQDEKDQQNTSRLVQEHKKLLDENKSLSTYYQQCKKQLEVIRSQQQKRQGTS

Chain of MAP kinase-interacting serine/threonine-protein kinase 2 (Q9HBH9 whole entry, looked up): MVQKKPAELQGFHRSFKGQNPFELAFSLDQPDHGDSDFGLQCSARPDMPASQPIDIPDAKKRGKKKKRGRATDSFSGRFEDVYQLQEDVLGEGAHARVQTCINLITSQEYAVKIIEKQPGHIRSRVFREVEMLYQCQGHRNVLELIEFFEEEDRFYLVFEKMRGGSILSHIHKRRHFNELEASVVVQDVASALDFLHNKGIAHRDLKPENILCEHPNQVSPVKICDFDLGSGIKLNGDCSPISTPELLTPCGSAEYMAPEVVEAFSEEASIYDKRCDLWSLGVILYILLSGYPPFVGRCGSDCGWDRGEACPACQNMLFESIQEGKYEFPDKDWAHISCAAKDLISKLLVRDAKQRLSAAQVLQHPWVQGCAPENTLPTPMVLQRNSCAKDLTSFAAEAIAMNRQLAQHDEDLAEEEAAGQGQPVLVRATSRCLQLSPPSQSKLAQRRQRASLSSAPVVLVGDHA
Chain of Serine/threonine-protein kinase MRCK beta (Homo sapiens) (Q9Y5S2 whole entry): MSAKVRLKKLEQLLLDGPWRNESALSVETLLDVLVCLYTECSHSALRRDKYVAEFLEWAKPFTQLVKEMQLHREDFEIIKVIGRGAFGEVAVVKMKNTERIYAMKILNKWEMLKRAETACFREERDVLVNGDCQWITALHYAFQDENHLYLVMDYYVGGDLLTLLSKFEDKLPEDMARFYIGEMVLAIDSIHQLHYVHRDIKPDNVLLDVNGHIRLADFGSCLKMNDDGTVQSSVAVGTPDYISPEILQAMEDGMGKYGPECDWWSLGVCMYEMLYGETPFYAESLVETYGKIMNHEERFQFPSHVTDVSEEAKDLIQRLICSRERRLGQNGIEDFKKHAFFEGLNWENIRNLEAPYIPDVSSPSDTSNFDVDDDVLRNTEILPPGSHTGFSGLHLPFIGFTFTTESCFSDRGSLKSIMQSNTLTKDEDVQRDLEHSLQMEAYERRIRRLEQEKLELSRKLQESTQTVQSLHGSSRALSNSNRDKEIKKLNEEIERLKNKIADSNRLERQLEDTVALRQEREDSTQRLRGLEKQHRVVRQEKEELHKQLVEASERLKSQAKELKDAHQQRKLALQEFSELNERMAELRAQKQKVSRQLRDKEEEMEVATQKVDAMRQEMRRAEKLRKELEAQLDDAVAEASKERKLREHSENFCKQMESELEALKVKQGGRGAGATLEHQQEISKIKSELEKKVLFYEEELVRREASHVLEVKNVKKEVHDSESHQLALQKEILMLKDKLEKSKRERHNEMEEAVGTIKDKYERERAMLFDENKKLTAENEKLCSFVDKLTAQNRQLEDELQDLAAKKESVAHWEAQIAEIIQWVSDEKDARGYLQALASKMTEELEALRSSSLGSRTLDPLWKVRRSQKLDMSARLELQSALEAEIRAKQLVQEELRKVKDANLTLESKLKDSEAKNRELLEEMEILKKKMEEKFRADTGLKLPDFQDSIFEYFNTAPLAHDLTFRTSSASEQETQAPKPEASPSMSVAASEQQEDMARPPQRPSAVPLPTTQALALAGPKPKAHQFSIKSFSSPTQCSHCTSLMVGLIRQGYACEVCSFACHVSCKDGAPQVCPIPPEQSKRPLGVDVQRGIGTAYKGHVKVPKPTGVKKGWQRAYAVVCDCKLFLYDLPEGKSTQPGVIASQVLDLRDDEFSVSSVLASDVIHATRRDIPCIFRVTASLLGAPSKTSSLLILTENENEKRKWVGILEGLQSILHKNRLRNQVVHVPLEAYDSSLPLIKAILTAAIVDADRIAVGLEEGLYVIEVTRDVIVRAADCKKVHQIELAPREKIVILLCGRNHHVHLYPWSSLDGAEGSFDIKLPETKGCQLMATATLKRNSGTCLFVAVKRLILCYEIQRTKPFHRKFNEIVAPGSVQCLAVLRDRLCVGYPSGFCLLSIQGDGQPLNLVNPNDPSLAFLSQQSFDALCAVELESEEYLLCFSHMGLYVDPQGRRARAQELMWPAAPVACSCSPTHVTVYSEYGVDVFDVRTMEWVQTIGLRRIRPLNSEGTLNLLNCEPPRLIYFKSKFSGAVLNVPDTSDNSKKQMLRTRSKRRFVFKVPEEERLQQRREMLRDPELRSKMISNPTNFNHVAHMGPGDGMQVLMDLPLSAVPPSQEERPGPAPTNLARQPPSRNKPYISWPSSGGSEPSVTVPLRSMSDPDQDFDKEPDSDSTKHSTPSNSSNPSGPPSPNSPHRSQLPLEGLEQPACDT
Chain of Serine/threonine-protein kinase/endoribonuclease IRE1 (Homo sapiens) (O75460 19-977 limits assumed): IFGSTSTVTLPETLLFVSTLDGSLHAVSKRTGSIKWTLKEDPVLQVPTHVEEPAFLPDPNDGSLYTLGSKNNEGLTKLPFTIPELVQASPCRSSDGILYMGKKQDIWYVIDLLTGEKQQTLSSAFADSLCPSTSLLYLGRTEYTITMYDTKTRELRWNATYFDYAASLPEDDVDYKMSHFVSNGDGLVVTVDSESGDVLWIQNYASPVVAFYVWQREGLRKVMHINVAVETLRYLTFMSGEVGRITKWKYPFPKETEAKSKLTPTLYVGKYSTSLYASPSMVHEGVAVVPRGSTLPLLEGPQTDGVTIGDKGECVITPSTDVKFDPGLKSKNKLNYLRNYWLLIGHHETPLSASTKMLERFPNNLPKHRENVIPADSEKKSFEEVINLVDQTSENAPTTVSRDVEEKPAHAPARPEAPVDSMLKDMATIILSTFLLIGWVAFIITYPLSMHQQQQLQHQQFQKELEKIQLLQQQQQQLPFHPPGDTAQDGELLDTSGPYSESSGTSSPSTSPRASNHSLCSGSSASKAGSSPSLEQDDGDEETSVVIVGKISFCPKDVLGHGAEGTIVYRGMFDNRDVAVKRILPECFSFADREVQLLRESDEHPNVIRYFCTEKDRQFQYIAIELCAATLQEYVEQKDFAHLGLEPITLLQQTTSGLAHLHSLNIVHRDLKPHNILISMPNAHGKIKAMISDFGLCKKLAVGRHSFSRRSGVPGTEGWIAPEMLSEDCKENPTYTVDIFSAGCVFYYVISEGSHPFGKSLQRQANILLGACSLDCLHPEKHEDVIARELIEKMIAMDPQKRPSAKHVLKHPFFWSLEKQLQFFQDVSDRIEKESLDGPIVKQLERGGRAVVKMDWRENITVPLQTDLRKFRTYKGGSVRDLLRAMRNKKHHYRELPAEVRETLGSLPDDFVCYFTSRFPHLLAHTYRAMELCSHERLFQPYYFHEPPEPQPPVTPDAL
Chain of Tyrosine-protein kinase receptor Tie-1 (Homo sapiens) (P35590 whole entry): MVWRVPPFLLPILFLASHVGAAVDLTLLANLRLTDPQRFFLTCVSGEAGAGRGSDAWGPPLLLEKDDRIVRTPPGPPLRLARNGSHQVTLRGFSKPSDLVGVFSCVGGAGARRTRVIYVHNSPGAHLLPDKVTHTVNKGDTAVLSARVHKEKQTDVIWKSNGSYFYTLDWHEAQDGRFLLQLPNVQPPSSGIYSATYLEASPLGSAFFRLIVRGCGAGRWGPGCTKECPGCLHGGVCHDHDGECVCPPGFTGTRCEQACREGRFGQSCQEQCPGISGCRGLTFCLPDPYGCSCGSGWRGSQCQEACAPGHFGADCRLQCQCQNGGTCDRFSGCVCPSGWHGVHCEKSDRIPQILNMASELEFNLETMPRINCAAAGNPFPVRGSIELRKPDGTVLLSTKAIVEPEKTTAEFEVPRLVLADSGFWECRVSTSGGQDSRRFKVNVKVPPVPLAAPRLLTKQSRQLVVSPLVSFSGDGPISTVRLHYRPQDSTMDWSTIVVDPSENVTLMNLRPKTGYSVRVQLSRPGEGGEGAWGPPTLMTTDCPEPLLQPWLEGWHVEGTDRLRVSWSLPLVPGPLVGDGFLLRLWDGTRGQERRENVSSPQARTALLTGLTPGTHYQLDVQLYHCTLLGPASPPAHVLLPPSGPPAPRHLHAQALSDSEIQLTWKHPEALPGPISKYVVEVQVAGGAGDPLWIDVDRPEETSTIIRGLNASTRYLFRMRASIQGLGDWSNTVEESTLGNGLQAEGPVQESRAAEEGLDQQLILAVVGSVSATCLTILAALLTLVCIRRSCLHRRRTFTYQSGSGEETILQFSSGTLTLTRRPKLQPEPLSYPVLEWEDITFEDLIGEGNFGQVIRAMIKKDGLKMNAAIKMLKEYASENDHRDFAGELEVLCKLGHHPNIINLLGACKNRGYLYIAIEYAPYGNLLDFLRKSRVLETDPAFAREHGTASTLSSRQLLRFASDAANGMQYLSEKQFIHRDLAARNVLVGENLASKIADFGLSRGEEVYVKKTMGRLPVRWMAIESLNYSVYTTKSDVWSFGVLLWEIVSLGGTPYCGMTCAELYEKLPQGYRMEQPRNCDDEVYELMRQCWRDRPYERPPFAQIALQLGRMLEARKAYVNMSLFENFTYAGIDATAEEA
Chain of Protein kinase C eta type (Homo sapiens) (P24723 whole entry): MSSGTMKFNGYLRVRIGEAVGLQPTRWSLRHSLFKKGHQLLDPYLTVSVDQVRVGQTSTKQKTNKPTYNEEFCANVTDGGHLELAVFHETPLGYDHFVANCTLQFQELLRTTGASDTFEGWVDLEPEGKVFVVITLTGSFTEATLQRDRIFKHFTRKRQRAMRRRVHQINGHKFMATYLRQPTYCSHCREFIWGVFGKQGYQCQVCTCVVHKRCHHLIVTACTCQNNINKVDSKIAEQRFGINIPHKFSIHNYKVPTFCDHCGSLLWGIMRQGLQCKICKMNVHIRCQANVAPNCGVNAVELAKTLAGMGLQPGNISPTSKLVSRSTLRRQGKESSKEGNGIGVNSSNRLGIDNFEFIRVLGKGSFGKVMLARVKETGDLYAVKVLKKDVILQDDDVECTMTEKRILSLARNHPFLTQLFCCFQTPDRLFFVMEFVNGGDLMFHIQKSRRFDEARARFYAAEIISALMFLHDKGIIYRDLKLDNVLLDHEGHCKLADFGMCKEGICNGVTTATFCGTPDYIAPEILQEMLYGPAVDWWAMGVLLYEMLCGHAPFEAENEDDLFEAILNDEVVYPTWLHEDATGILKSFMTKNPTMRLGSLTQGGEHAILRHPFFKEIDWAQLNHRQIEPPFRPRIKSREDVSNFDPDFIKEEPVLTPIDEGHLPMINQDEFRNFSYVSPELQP

## Cc1cc(-c2ccnc(Nc3cnn(C)c3)n2)ccc1CNC(=O)N1CC(OC(C)C)C1
[1]
  % of control: 46%

## COc1cc(Nc2nc(C)cc(-c3cnn4nc(OC)ccc34)n2)cc(C(F)(F)F)c1
[2]
  % of control: 100%

## CC[C@@H]1[C@H](F)C(=O)N[C@@H]1COc1nccc2cc(C(N)=O)c(OC)cc12 [ZIMLOVISERTIB]
[3]
  % of inhibition: 0.5%

## Cn1cc(-n2cnc3c(NCc4nc5cc(Cl)c(Cl)cc5[nH]4)nc(N4CCOCC4)nc32)cn1
[4]
  % of inhibition: -29.8%

## COc1cc(N(C)c2ccnc3ccc(C(F)(F)F)cc23)cc(OC)c1OC
[5]
  % binding: 100%
[6]
  % binding: 97%

## C=CC(=O)Nc1cccc(C(=O)Nc2ccc(Nc3cc(-c4[nH]c(SC)nc4C)ccn3)cc2)c1
[7]; at 1 µM
  % of control: 80%
[7]; at 5 µM
  % of control: 31%

## CCC(=O)N1CCN(c2ccc(-n3c(=O)ccc4cnc5ccc(-c6cnc7ccccc7c6)cc5c43)cc2C(F)(F)F)CC1
[8]
  % of control: 92%

## CN(C)CCCOc1ccc(-c2cc(NCCCn3cccn3)nc(S(C)(=O)=O)n2)cc1
[9]
  dTM: < 2 K

## C=CC(=O)Nc1cc(-n2c(=O)ccc3cnc4ccc(-c5ccc(NS(C)(=O)=O)cc5)cc4c32)ccc1C
[10]; at 1 µM
  % of control: 27%
[10]; at 10 µM
  % of control: 4.2%

## O=C(NOC[C@H](O)CO)c1ccc(F)c(F)c1Nc1ccc(I)cc1F
[11]
  % of control: 75%
